Measurements: article PMC8026246 (Bioorganic Chemistry, 2021)

Target: SARS-CoV-2 M^pro (Severe acute respiratory syndrome coronavirus 2, UniProt P0DTD1)
Assay type: binding
Conditions: pH 6.8

**Q.** For `CCN(CC)c1ccc2c(-c3ccccc3C(=O)O)c3ccc(=[N+](CC)CC)cc-3oc2c1` [rhodamine B], which “Fluorescent labeling of M^pro (gel, UV 365 nm)” value is on record?
**A.** could not label M^pro
